In assay [1] the target is T1, OX2 (Homo sapiens, UniProt O43614).
T1 sequence (O43614 1-444): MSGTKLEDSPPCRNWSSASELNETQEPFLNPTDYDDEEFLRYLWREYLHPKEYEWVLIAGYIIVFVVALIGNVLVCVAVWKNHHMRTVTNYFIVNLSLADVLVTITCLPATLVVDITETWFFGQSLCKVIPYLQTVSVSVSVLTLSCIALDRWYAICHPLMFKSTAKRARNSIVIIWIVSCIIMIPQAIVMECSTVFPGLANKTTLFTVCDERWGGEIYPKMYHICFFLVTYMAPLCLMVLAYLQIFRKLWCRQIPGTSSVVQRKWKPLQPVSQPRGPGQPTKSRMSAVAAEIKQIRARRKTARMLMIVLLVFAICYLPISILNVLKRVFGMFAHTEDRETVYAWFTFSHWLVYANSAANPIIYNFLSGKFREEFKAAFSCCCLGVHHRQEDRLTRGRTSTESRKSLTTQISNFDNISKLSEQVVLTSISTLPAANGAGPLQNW
The assay can be described thus: Orexin-receptor binding ability, [125I]-OX-A, CHO cell membranes expressing OX2. Details: expressed in transfected cells; host or cells: CHO cells (membrane preparation). The essentials:
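Competition binding used membranes from recombinant CHO cells (5 μg protein/assay) with 0.2 nM [125I]-OX-A tracer and varied compound concentrations. Incubation was 30 min at room temperature in 25 mM HEPES pH 7.5 with CaCl2, MgCl2, 0.5% BSA, 0.05% Tween-20 and 0.2% DMSO. Bound radioactivity was counted by scintillation after one wash, giving IC50 (nM).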

For assay [2], the target named is T2, OX1 (Homo sapiens, UniProt O43613).
T2 sequence (O43613 1-425): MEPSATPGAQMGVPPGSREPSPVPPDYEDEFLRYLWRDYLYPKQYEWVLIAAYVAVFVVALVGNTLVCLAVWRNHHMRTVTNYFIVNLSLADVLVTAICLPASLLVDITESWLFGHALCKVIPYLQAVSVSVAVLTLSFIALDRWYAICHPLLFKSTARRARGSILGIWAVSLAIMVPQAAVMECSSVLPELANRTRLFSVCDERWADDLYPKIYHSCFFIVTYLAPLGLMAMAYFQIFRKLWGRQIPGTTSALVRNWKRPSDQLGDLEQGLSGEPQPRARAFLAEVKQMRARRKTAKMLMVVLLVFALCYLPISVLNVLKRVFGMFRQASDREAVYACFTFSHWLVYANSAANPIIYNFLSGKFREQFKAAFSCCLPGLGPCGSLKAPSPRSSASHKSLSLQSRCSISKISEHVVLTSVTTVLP
As to the kind of experiment: Orexin-receptor binding ability, [125I]-OX-A, CHO cell membranes expressing OX1. Set-up: expressed in transfected cells; host or cells: CHO cells (membrane preparation). The conditions noted are these: membranes of recombinant CHO cells, 0.2 nM [125I]-OX-A tracer; read-out: OX1 (IC50). The essentials:
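Buffer was 25 mM HEPES pH 7.5, 1 mM CaCl2, 4.5 mM MgCl2, 0.5% BSA, 0.1% sodium azide, 0.05% Tween-20 and 0.2% DMSO. Bound radioactivity was counted by scintillation, and IC50 values were reported.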

Assay [3] has as its target T1, OX2. The assay can be described thus: Antagonism PLAP reporter assay, HEK-293 cells expressing human OX2. In kind it is cell-based. Set-up: expressed in transfected cells; host or cells: HEK-293 cell line, expression vector pBabeCLIH. The settings on record: HEK-293, 1 nM human OX-A; IC50 converted to Ki by Cheng-Prusoff equation. The protocol:
(§1) The antagonistic function of the compound of the present invention to prevent the activation of OX2 and OX1 by orexin-A (OX-A), which is a natural peptide agonist, was measured using a cell-based reporter assay. A HEK-293 cell line expressing genetically recombinant human OX2 (accession No. NM_001526.3) or a HEK-293 cell line expressing genetically recombinant human OX1 (accession No. NM_001525.2), which had pBabeCLIH as expression vector, was used. The cells were plated at a density of 10,000 cells/well onto a non-coated 96-well plate in Dulbecco's modified Eagle medium (Sigma Cat No. D6046: 10% v/v heat-inactivated fetal bovine serum was contained). The cells were cultured at 37° C. overnight, so that they could adhere to the plate. On the following day, cells were incubated with a compound of the present invention dissolved in Dulbecco's modified Eagle medium (Sigma Cat No. A8806: 0.1% w/v bovine serum albumin was contained), and added to the cell plate to reach a final concentration of 0.1% dimethyl sulfoxide.
(§2) The thus obtained mixture was incubated at room temperature for 1 hour. Thereafter, human OX-A and forskolin were dissolved in the same medium as described above, which contained fetal bovine serum albumin, and the medium was then added to the cells, resulting in a final concentration of 300 nM forskolin. Subsequently, the cells were cultured at 37° C. for approximately 18 to 24 hours. During the culture, as a result of activation of the orexin receptor and subsequent dose-dependent increase in intracellular calcium concentration, a reporter enzyme, placental alkaline phosphatase (PLAP), was expressed under the control of a CRE x4+VIP promoter in a pBabeCLcre4vPdNN vector and secreted into the culture medium supernatant. On the following day, reporter enzyme activity was detected by mixing 5 ul of the culture medium supernatant with 20 ul of detection buffer (containing 1.34 g/L sodium bicarbonate, 1.27 g/L sodium carbonate and 0.2 g/L magnesium sulfate heptahydrate in water) and 25 ul of Lumi-Phos530 reagent (Wako Pure Chemical Industries Ltd.), followed by incubating the obtained mixture light-protected at room temperature for 2 hours, before performing luminescence measurement (ARVO Reader, PerkinElmer). The Kd value of human OX-A with respect to each receptor was measured by titration from 0 to 300 nM. Then, the IC50 value of the compound of the present invention with respect to the activity of 1 nM human OX-A was converted into a Ki value (nM) using the Cheng-Prusoff equation.

Assay [4] addresses T2, OX1. The assay can be described thus: Antagonism PLAP reporter assay, HEK-293 cells expressing human OX1. In kind it is cell-based. Details: expressed in transfected cells; host or cells: HEK-293 cell line, expression vector pBabeCLIH. The settings on record: HEK-293, 1 nM human OX-A; IC50 converted to Ki by Cheng-Prusoff equation. How it is done:
as §1, §2
In general terms: In a reporter assay the amount or activity of a reporter protein is the signal.

[5] abbreviates: membranes of recombinant CHO cells, 0.2 nM [125I]-OX-A tracer, read-out: OX2 (IC50).

Read-outs that look alike come from different tables or passages of the source.

For orientation: IC50 means the midpoint of a concentration-inhibition curve. A word on the Ki: it is a dissociation constant, usually derived from enzyme kinetics or from competition with a known ligand. Turning to `CCn1nc(C)cc1OCC1(c2ccccc2)CC1C(=O)Nc1ccc(F)cn1` (centres unmarked) [Example 58], the figures for the IC50 at OX2 [1] (setting [5]) and on OX1 [2] were 45 nM and 467 nM, respectively. Besides, the Ki at OX2 [3] was 20.9 nM; on OX1 [4], above 467 nM.
Regarding `Cc1noc2cc(OCC3(c4ccccc4)CC3C(=O)Nc3ccc(C#N)cn3)ccc12` (centres unmarked) [Example 61], the values for the IC50 on OX2 [1] (setting [5]) and on OX1 [2] were 70 nM and 520 nM, respectively. In addition, the results for the Ki on OX2 [3] and on OX1 [4] were 32.9 nM and 275 nM, respectively.
For `Cc1ccc(OCC2(c3ccccc3)CC2C(=O)Nc2ccc(Cl)cn2)c(C)n1` (centres unmarked) [Example 62], in that order: 61 nM, 44 nM, 30.2 nM and 481 nM.
For `CCn1nc(C)c(Cl)c1OCC1(c2ccccc2)CC1C(=O)Nc1ccc(F)cn1` (centres unmarked) [Example 74], in that order: 30 nM, 359 nM, 30.7 nM and above 467 nM.
Turning to `CCn1nc(C)c(Cl)c1OCC1(c2ccccc2)CC1C(=O)Nc1ccc(Cl)cn1` (centres unmarked) [Example 75], the IC50 on OX2 [1] (setting [5]) amounted to 26 nM; on OX1 [2] it was 477 nM. The Ki on OX2 [3] is 30.8 nM; on OX1 [4], above 816 nM.
`COc1cc(F)c(OCC2(c3ccccc3)CC2C(=O)Nc2ccccn2)cc1OC` (centres unmarked) [Example 78]: the IC50 on OX2 [1] was 20 nM; at OX1 [2], 212 nM. For the same compound, the values for the Ki at OX2 [3] and at OX1 [4] were 19.2 nM and 342 nM, respectively.
`CCn1cc(OCC2(c3ccccc3)CC2C(=O)Nc2ccc(F)cn2)c(C)n1` (centres unmarked) [Example 79, N-(5-fluoropyridin-2-yl)-2-[(1-ethyl-3-methyl-1H-pyrazol-4-yl)oxymethyl]-2-phenylcyclopropanecarboxamide]: the IC50 on OX2 [1] (setting [5]) came to 54 nM; at OX1 [2] it was 213 nM. The figures for the inhibition constant (Ki) on OX2 [3] and on OX1 [4] were 10.5 nM and 275 nM, respectively.
As for `CCn1cc(OCC2(c3ccccc3)CC2C(=O)Nc2ccc(C#N)cn2)cn1` (centres unmarked) [Example 80], the IC50 came to 54 nM on OX2 [1] (setting [5]) and 359 nM on OX1 [2]. The Ki on OX2 [3] was 190 nM; on OX1 [4], above 467 nM.
The like results for `CCn1cc(OCC2(c3ccccc3)CC2C(=O)Nc2ccc(Cl)cn2)cn1` (centres unmarked) [Example 81] were, in that order, 33 nM, 163 nM, 78 nM and above 467 nM.
With `COc1ccc(CCC2(c3ccccc3)CC2C(=O)Nc2ccccn2)cc1OC` (centres unmarked) [Example 99, N-(pyridin-2-yl)-2-[2-(3,4-dimethoxyphenyl)ethyl]-2-phenylcyclopropanecarboxamide], the results for the IC50 on OX2 [1] (setting [5]) and at OX1 [2] were 43 nM and 632 nM, respectively. Also, the Ki was 154 nM on OX2 [3] and above 816 nM at OX1 [4].
For `CCc1nc(C)c(CC[C@@]2(c3ccccc3)C[C@H]2C(=O)Nc2ccc(C#N)cn2)s1` [Example 100, (1R,2R)—N-(5-cyanopyridin-2-yl)-2-[2-(2-ethyl-4-methyl-1,3-thiazol-5-yl)ethyl]-2-phenylcyclopropanecarboxamide], in that order: 9 nM, 58 nM, 5.2 nM and 47.5 nM.
For `CCc1nc(Cl)cn1CCC1(c2ccccc2)CC1C(=O)Nc1ccc(F)cn1` (centres unmarked) [Example 113], the results for the IC50 at OX2 [1] (setting [5]) and at OX1 [2] were 49 nM and 944 nM, respectively. The Ki is 62.7 nM at OX2 [3] and above 467 nM at OX1 [4].
The like results for `CCc1nc(Cl)cn1CCC1(c2ccccc2)CC1C(=O)Nc1ccc(C#N)cn1` (centres unmarked) [Example 114] were, in that order, 49 nM, 868 nM, 210 nM and above 467 nM.
For the compound `COc1ccc(S(=O)(=O)CC2(c3ccccc3)CC2C(=O)Nc2ccc(Cl)cn2)cc1OC` (centres unmarked) [Example 134, N-(5-chloropyridin-2-yl)-2-[(3,4-dimethoxyphenyl)sulfonylmethyl]-2-phenylcyclopropanecarboxamide], the IC50 is 79 nM on OX2 [1] and 261 nM at OX1 [2]. Besides, the inhibition constant Ki at OX2 [3] is 268 nM; on OX1 [4], above 467 nM.

The values above are taken from patent publication US20120165339A1, “CYCLOPROPANE DERIVATIVES” (EISAI R&D MANAGEMENT CO., LTD., priority 2010, published 2012).
